Measured values taken from a melting point compilation (Tetko et al.; mined from patent text by program, amines drawn as free bases though some values may be those of a salt).

Row | melting point | Compound
1 | > 335 °C | CCOC(=O)CCc1ccc(N2CCN(c3ccc(C(=N)NC(=O)OCC)cc3)C2=O)cc1
2 | 219 to 221 °C | CC(C)c1ccc2c(c1)C(=O)c1ccc(-c3nnn(C)n3)cc1S2(=O)=O
3 | 148 to 150 °C | COC(=O)CC1CCc2cc(C(=O)c3ccccc3)c(O)cc21 (configuration not stated)
4 | 66 to 67 °C | C=CCOc1cc(C=O)ccc1O
5 | 149 °C | CC1(C)OC(=O)N(C(=O)/C=C/c2ccccc2)[C@@H]1c1ccccc1
6 | 192 to 195 °C | CCCCCC1Cc2cc(OCC(=O)O)c(Cl)c(Cl)c2C1=O (configuration not stated)
7 | 196 to 197 °C | Nc1nc2[nH]c(CCC#Cc3ccc(C(=O)N[C@@H](CCC(=O)O)C(=O)O)s3)cc2c(=O)[nH]1
8 | 190 to 193 °C | COc1cc2ncc(C#N)c(Nc3cccc(C(F)(F)F)c3)c2cc1OC
9 | 128 to 129 °C | O=S(=O)(NCCCN1CCC(Oc2ccc(F)c(F)c2)CC1)c1ccc(-c2ccccn2)s1
10 | 166 to 172 °C | ON=C1COc2cc(OCc3c(F)cccc3F)ccc21
11 | 168 to 171 °C | CC(=O)OCc1ccc2oc(=O)c(C(=O)Oc3cc(Cl)ccc3Cl)cc2c1
12 | 174 °C | Cc1sc(-c2ccc(-c3ccccc3)cc2)nc1CCOc1ccc(OC(C)(C)C(=O)O)cc1
13 | 269 to 271 °C | COc1cc(Nc2nccc(-c3sc(N)nc3C)n2)cc(OC)c1
14 | 61 to 62 °C | CC(=O)OCCn1cncc1[N+](=O)[O-]
15 | 48 to 49 °C | CCn1c(=O)n(C)c(=O)n(-c2cc(C(=O)OC)c(Cl)cc2F)c1=O
16 | 78 to 80 °C | O=C(C=C(c1ccccc1)c1ccccc1)NCCCCc1cccnc1
17 | 129 to 131 °C | NC(=S)c1cccc2nnsc12
18 | 114 to 117 °C | O=C(O)C1CCN(c2ncc(NS(=O)(=O)c3ccccc3Br)c(NCc3ccccc3)n2)CC1
19 | 144 to 146 °C | CCN(CC)Cc1ccc(-c2cccc(-c3ccnc4c(C(=O)c5cccs5)cnn34)c2)cc1
20 | 48 °C | C=CC[C@@H]1C(=O)OC[C@@H]1O[Si](C)(C)C(C)(C)C
21 | 183 to 184 °C | CNC(=O)c1ccc(-c2coc3ccc(-c4nnc(C)o4)cc23)cc1F
22 | 97 to 99 °C | C=C1CCC2C3CCC4CC(O)C(OCC)CC4(C)C3C(=NO)CC12C (configuration not stated)
23 | 150 °C | CC(=O)OC1CSC(Oc2ccc(-c3cccnc3)cc2)C(OC(C)=O)C1OC(C)=O (configuration not stated)
24 | 212 °C | Cc1ccccc1-c1nc2c(o1)C(=O)c1ccccc1C2=O

Row | melting point | Compound
25 | 65 to 80 °C | CCCCN(Cc1ccc(-c2ccccc2-c2nnn[nH]2)cc1)c1ncncc1C(=O)OCC(=O)OC
26 | 67 to 68 °C | CCOc1cnc(-c2cc(Cl)c(OC)c3ccccc23)s1
27 | 128 to 129 °C | CCCCCC(=O)c1c(CSc2nccn2C)nc2cc(OC)c(OC)cc2c1-c1ccc(OC)c(OC)c1
28 | 138 °C | COC(=O)CC1OCCN(CCc2c[nH]c3ccc(C)cc23)C1=O (configuration not stated)
29 | 58 to 63 °C | O=C(Nc1cccc(C(F)(F)F)c1)OCC1(COC(=O)Nc2cccc(C(F)(F)F)c2)CSc2ccccc2C1=O
30 | 193 to 197 °C | CCCCc1nc(Cl)c(CO)n1Cc1ccc2oc(-c3ccccc3-c3nnn[nH]3)c(Br)c2c1
31 | 202 to 203 °C | O=S(=O)(c1ccc(Nc2ccnc3cc(C(F)(F)F)ccc23)cc1)N1CCN(c2ccccn2)CC1
32 | 115 °C | Oc1cccc2cc3ccccc3nc12
33 | 120 to 124 °C | COc1cc(OC2CCN(C(=O)Cc3c[nH]cn3)CC2)ccc1CC(=O)N1CCN(c2ccccc2C)CC1C(N)=O (configuration not stated)
34 | 272 °C | CC(C)(CO)NS(=O)(=O)c1cc(NC(=O)c2cnn3c(C(F)(F)F)cc(-c4ccc(Cl)cc4)nc23)c(Cl)s1
35 | 118 °C | CC1(C)CCCC=C1c1ccc(C(=O)N2Cc3cccn3Cc3ccccc32)cc1
36 | 228 to 229 °C | CCN1c2ncc(C#Cc3ccccc3)cc2C(=O)N(C)c2cccnc21
37 | 188 to 190 °C | NC(=O)CNc1ncccc1NC(=O)c1ccccn1
38 | 133 °C | COc1ccc(CN2C(=O)C(C)(c3ccccc3Cl)c3cc(OC)ccc32)c(OC)c1 (configuration not stated)
39 | 173 to 181 °C | COc1ccc2ccc(NC(=O)c3c[nH]c4c3C(=O)CCC4)nc2n1
40 | 40 °C | CC1OC(=O)c2c(S)cccc21 (configuration not stated)
41 | 105 to 107 °C | CC(=O)NCC1CN(c2ccc(N3CCN(C(=O)COC(=O)CO)CC3)c(F)c2)C(=O)O1 (configuration not stated)
42 | 111 to 113 °C | COCCOc1cc(CCC(=O)O)n(Cc2ccc(Cl)cc2Cl)n1
43 | 62 to 64 °C | FC(F)(F)c1cc(Br)c2cccc(Cl)c2n1
44 | 231 to 234 °C | O=C(O)c1ccc(CNS(=O)(=O)c2ccc(F)cc2)cc1
45 | 102 to 107 °C | CCOC(=O)Cc1cc(OC)c(OC(C)=O)c(C2(OC(C)=O)C(=O)c3ccccc3C2=O)c1
46 | 185 to 187 °C | CC(=O)SCC(CC(C)C)C(=O)Nc1cc(C)cc(C(=O)O)c1 (configuration not stated)
47 | 119 to 120 °C | COC(=O)c1cc(NC(C)=O)c([N+](=O)[O-])cc1C(=O)OC
48 | 121 to 122 °C | CCC(CC)C1CC(=O)C(C(=O)NS(=O)(=O)c2ccc(Cl)cc2)C(=O)C1 (configuration not stated)

Row | melting point | Compound
49 | 131 to 134 °C | CC(C)C(=O)N1CCC(C2(c3cccc(-c4ccccc4)c3)N=C(N)N(C)C2=O)CC1 (configuration not stated)
50 | 158 to 159 °C | CN1CCC2(CC1=O)c1ccccc1Oc1ccccc12
51 | 238 °C | CNC(=S)N1CCc2c(ncn2C)C1
52 | 60 to 63 °C | CC(=O)OCc1cccc([N+](=O)[O-])c1Br
53 | > 300 °C | NCc1ccn(-c2cc3c(cc2[N+](=O)[O-])[nH]c(=O)c(=O)n3C2CCCCC2)c1
54 | 128 to 130 °C | CC(=O)NCc1ccc(C(C)N2CCN(c3ccc(F)cc3)CC2)cc1 (configuration not stated)
55 | 104 to 107 °C | COc1cccc(-c2ccc(NC(=O)OC(C)(C)C)c([N+](=O)[O-])c2)c1
56 | 155 to 158 °C | O=C1NC(=O)C(Cc2ccc3c(c2)CCCN3Cc2ccccc2)S1 (configuration not stated)
57 | 164 to 166 °C | CCn1cc(C(=O)O)c(=O)c2cc(F)c(-c3csc(CNC)n3)c(OC)c21
58 | 247 to 249 °C | CC(C)n1c(=O)c2c(-c3cc(C4CC4)on3)ncn2c2ccccc21
59 | 103 to 106 °C | N#CC(C=O)c1cccc(C(F)(F)F)c1 (configuration not stated)
60 | 217 to 219 °C | COc1ccc(-c2cc3cc(F)c(F)cc3[nH]2)cc1NS(=O)(=O)c1cc(Cl)cc(Cl)c1
61 | 92 to 94 °C | CCOC(=O)C1=C(C)NC(CSc2ccccc2)=C(C(=O)OCC)C1c1cccc([N+](=O)[O-])c1 (configuration not stated)
62 | 142 to 144 °C | N#Cc1ccc(-c2ccc(OC(F)(F)F)c(CNC3CCN(C(=O)C(N)=O)CC3c3ccccc3)c2)c(F)c1 (configuration not stated)
63 | 121 to 122 °C | COc1ccc(CN2C(=O)[C@H](CO)[C@H]2S(=O)(=O)C(C)(C)C)cc1
64 | 116 °C | CCOC(=O)N1CCC(Nc2ccc(Cl)cc2[N+](=O)[O-])CC1
65 | 156 to 158 °C | O=C(NNc1ccccc1Cl)c1c(F)cccc1Cl
66 | 50 to 53 °C | O=C(C(CCCl)c1ccccc1)N1CCCCCC1 (configuration not stated)
67 | 219 to 225 °C | CC(=O)NCC(C)(C)c1ccc2nc(-c3ccncc3)[nH]c2c1
68 | 196 °C | NC(=O)c1nccn1C1Cc2c(cccc2-c2ccccc2)C1=O (configuration not stated)
69 | 125 to 126 °C | COc1nc2cc([N+](=O)[O-])c(C)c(C(=O)NCC(=O)OC(C)(C)C)c2nc1OC
70 | 88 to 90 °C | N#CCc1cccc([N+](=O)[O-])c1[N+](=O)[O-]
71 | 85 to 89 °C | NS(=O)(=O)c1ccsc1CO
72 | 188 to 190 °C | COCCOc1cc2ncc(C#N)c(Nc3cc(OC)c(OC)c(OC)c3)c2cc1OC

Row | melting point | Compound
73 | 250 to 251 °C | COC1CCN(c2cc3c(cc2C#Cc2ccccc2)NC(=O)CC(c2cccc(C#N)c2)=N3)CC1
74 | 239 to 240 °C | Nc1nc2ccccc2c2c1nc1n2C(CO)COC1 (configuration not stated)
75 | 200 to 201 °C | Cn1c(CNC2CCS(=O)(=O)CC2)cc2cc(NC(=O)c3ccc(OCC4CC4)cc3)ccc21
76 | 99 to 101 °C | CC(C)[C@H](NC(=O)[C@@H](C)c1ccc(Nc2nc(C(F)(F)F)cs2)cc1)C(=O)O
77 | 145 to 150 °C | O=C(O)c1cc2cc(Cl)ccc2nc1N[C@@H](Cc1ccc(Oc2ccc(Br)cn2)cc1)C(=O)O
78 | 110 °C | CC(C)NCC(O)COc1cccnc1N (configuration not stated)
79 | 35 °C | CC(=O)SCCc1ccc(C=O)cc1
80 | 319 to 320 °C | CC1Oc2c(cc(Cl)cc2C(=O)O)NC1=O (configuration not stated)
81 | 155 to 157 °C | CC(=O)Nc1ccccc1Nc1ccc(C(=O)c2ccccc2)cc1
82 | 184 to 185 °C | C=CCOCc1c(CO)sc2c(=O)c(C(=O)NCc3ccc(Cl)cc3)cn(C)c12
83 | 135 to 136 °C | COC(=O)Cc1ccc(Sc2ccccc2C(=O)O)c([N+](=O)[O-])c1
84 | 168 to 170 °C | CCC1(CCCCN2CCN(c3ccccn3)CC2)C(=O)Nc2ccc(C)cc21 (configuration not stated)
85 | 44 to 46 °C | CCC(CC)N1C(=O)CCc2c1cc(C)nc2Nc1c(C)cc(C)cc1C
86 | 161 to 162 °C | CSc1ccc(C=C2C(=O)c3ccccc3CC2OCCn2ccnc2)cc1 (configuration not stated)
87 | 225 to 227 °C | Cc1cc(C)c2c(c1)c(-c1ccccc1Cl)c(NC(=O)Nc1ccc(F)cc1F)c(=O)n2C
88 | 242 to 245 °C | O=[N+]([O-])c1cccc2nc[nH]c12
89 | 108 to 119 °C | CCOCCn1c(NC2CCN(CCC3(c4ccc(C)c(C)c4)CCN(C(=O)c4cc(OC)c(OC)c(OC)c4)C3)CC2)nc2ccccc21 (configuration not stated)
90 | > 260 °C | CCOC(=O)c1c(Cl)nc2cc3c(cc2c1CCl)OCCO3
91 | 131 to 132 °C | CC(C)N1CCN(C(=O)c2ccc(-c3ccc(=O)n(C)n3)cc2)CC1
92 | 97 to 97.5 °C | O=C(OCc1ccccc1)C1(NS(=O)(=O)c2ccc(Oc3ccc(F)cc3)cc2)CCCC1
93 | 169 to 171 °C | COC(=O)c1cc(-c2ccc(OCc3ccccc3)cc2)c(=O)n2ccc3ccsc3c12
94 | 54.5 to 55 °C | Cc1ccc(N=C2SCS2)cc1
95 | 149 to 154 °C | CN(C)C(=O)c1ccccc1CS(N)(=O)=O

Row | Compound | melting point
96 | CN1C(=O)CC(=O)N(c2ccccc2)C1=O | 124 °C
97 | O=C1c2c(Cl)cccc2-n2cnc(-c3nnco3)c2[C@@H]2CCN12 | 264 to 265 °C
